Test results taken from US6713048B2, “Δ9 tetrahydrocannabinol (Δ9 THC) solution metered dose inhalers and methods of use” (Virginia Commonwealth University, priority 1998, dated 2004).
“Also recorded” adds a separate entry of the source.

Columns and labels:
[1] = tested on: Spasticity and pain due to spinal cord injury; details: oral THC (5 mg) or codeine (50 mg); 1 patient; cited from earlier work
Male ICR mice [2] = assay: Locomotor activity (hypomotility), Digiscan Animal Activity Monitor; type: in vivo; details: SR 141716A 10 mg/kg i.p. 5 min before 60 actuations of Δ^9-THC MDI
Procedure: Mice were placed in separate clear chambers (16.5 cm×25.5 cm×11.5 cm high) and assessed for hypomotility using a Digiscan Animal Activity Monitor (Omnitech Electronics Inc., Columbus, Ohio) in which the total number of photocell-light beam interruptions was counted. Antinociception was assessed in the tail-flick test (D'Amour, F. E., Smith, D. L., A method for determining loss of pain sensation, J Pharm Exp Ther, 72:74-79 (1941)) with heat intensity adjusted to give baseline latencies ranging from 2.0-4.0 seconds. […] Percent maximum possible effect (%MPE) was determined according to the following formula:
A ring-test procedure was used to assess catalepsy. […] Body temperature was assessed by inserting a thermometer probe (Traceable Digital, Control Co., Friendswood, Tex.) 2.5 cm into the rectum. […]

Male ICR mice [3] = assay: Antinociception, tail-flick test; type: in vivo
Procedure: (§1) Male ICR mice, weighing approximately 30 g, obtained from Harlan Laboratories (Indianapolis, Ind.) were provided a light cycle of approximately 6 a.m. to 6 p.m., and the temperature remained approximately 23° C. The mice were placed in the lab and allowed to accommodate to the surroundings the evening prior to testing. Animals were allowed food (Harlan Teklab, Madison, Wis.) and water ad libitum.
The exposure chamber was a modified, inverted, 1-liter separation funnel, housed under a fume hood, which allowed four mice to be simultaneously exposed to the aerosol. Air was drawn through the chamber at a rate of approximately 60 ml/minute and filtered through glass wool (Corning Inc., Corning, N.Y.) and charcoal traps (SKC Inc., Eighty Four, Pa.) upon exiting the exposure chamber. Each actuation of Δ^9-THC or vehicle was delivered once per 5 s and the entire exposure period was 10 min. Mice were exposed to 20, 40 or 60 actuations of aerosolized Δ^9-THC or 60 actuations of vehicle.
Mice were placed in separate clear chambers (16.5 cm×25.5 cm×11.5 cm high) and assessed for hypomotility using a Digiscan Animal Activity Monitor (Omnitech Electronics Inc., Columbus, Ohio) in which the total number of photocell-light beam interruptions was counted. Antinociception was assessed in the tail-flick test (D'Amour, F. E., Smith, D. L., A method for determining loss of pain sensation, J Pharm Exp Ther, 72:74-79 (1941)) with heat intensity adjusted to give baseline latencies ranging from 2.0-4.0 seconds. A cut-off time of 10 seconds was used to limit tissue damage. Percent maximum possible effect (%MPE) was determined according to the following formula:
%MPE=[(test latency-baseline latency)/(cut-off-baseline latency)]*100
(§2) A ring-test procedure was used to assess catalepsy. The percent of time during a five minute observation period that mice remained motionless, except for movements related to respiration, while stationed on a 5.7 cm diameter ring stand 23 cm above the laboratory bench, was assessed. Body temperature was assessed by inserting a thermometer probe (Traceable Digital, Control Co., Friendswood, Tex.) 2.5 cm into the rectum. Subjects were assessed for baseline tail-flick latency and rectal temperature prior to drug or vehicle administration. […] Locomotor activity, tail-flick latency, catalepsy, and hypothermia were assessed 5, 20, 40, and 60 minutes, respectively, after aerosol exposure. An additional group of animals was given an i.v. injection of Δ^9-THC (0.3, 1, 3, or 10 mg/kg) or vehicle into a lateral tail vein and assessed in the tail-flick test 20 minutes later. All injections were given in a volume of 0.1 ml per 10 g animal weight.
The statistical analysis of the data was as follows. Data are represented by means±standard error (s.e.). Statistical analysis of the data was performed using Student t-tests (for the physiochemical comparisons of the aerosol), or ANOVA (for pharmacological studies), with significance set at p<0.05. Post hoc tests for significant ANOVAs included either Dunnett's test or Tukey/Kramer post-hoc analysis. […] A sample size of 6-8 mice was used in each group.

Male ICR mice [4] = assay: Catalepsy, ring-test (ring immobility); type: in vivo; details: SR 141716A 10 mg/kg i.p. 5 min before 60 actuations of Δ^9-THC MDI
Procedure: as §1
(§3) The exposure chamber was a modified, inverted, 1-liter separation funnel, housed under a fume hood, which allowed four mice to be simultaneously exposed to the aerosol. […]
as §2, with “An additional group of animals was given an i.v. injection of Δ^9-THC (0.3, 1, 3, or 10 mg/kg) or vehicle into a lateral tail vein and assessed in the tail-flick test 20 minutes later. All injections were given in a volume of 0.1 ml per 10 g animal weight.” left out

Male ICR mice [5] = assay: Hypothermia, rectal temperature; type: in vivo; details: SR 141716A 10 mg/kg i.p. 5 min before 60 actuations of Δ^9-THC MDI
Procedure: as §1, §3
as §2, with “An additional group of animals was given an i.v. injection of Δ^9-THC (0.3, 1, 3, or 10 mg/kg) or vehicle into a lateral tail vein and assessed in the tail-flick test 20 minutes later. All injections were given in a volume of 0.1 ml per 10 g animal weight.” left out

mice = details: cited from earlier work
[6] = tested on: Nausea and emesis due to Cancer chemotherapy; details: oral 15 mg THC, 10 mg prochloperzine or placebo; 116 patients; cited from earlier work

## COc1ccc2c3c1O[C@H]1[C@@H](O)C=C[C@H]4[C@@H](C2)N(C)CC[C@@]341 [codeine]
[1]
  effect on spasticity: codeine did not

## Cc1c(C(=O)NN2CCCCC2)nn(-c2ccc(Cl)cc2Cl)c1-c1ccc(Cl)cc1 [SR 141716A]
Male ICR mice [2]
  antagonism of Δ^9-THC-induced hypomotility: significantly blocked; also recorded: significantly antagonized
Male ICR mice [3]; SR 141716A 10 mg/kg i.p. 5 min before 60 actuations of Δ^9-THC MDI
  antagonism of Δ^9-THC-induced antinociception: significantly blocked; also recorded: significantly antagonized
Male ICR mice [3]; i.p. pretreatment, exposure to Δ^9-THC
  AD50 (95% C.L.) in antagonizing the antinociceptive effects of inhaled Δ^9-THC: 0.8 mg/kg
Male ICR mice [4]
  antagonism of Δ^9-THC-induced catalepsy: significantly blocked; also recorded: significantly antagonized
Male ICR mice [5]
  antagonism of Δ^9-THC-induced hypothermia: significantly blocked; also recorded: not completely antagonized; also recorded: significantly antagonized
mice; exposure to marijuana smoke (Lichtman et al., 2001)
  ED50 in antagonizing antinociceptive effects: 0.6 mg/kg
mice; mice exposed to marijuana smoke (Lichtman et al., 2001)
  antagonism of effects of marijuana smoke: only effectively antagonized the antinociceptive response

## CN1CCN(CCCN2c3ccccc3Sc3ccc(Cl)cc32)CC1 [prochlorperazine]
[6]
  antiemetic effect compared with placebo: each greater than placebo;
  antiemetic effects, THC vs prochlorperazine: Equal antiemetic effects
